From patent publication US10722520B2, “Heterocyclic compounds and their use in preventing or treating bacterial infections” (MUTABILIS, priority 2016, dated 2020) come the findings set out here.

The structures appear in SMILES notation.

Experiment [1] relates to E. cloacae P99. As to the kind of experiment: MIC of compound alone, broth microdilution. Type of experiment: cell-based. The settings on record: strain P99; compound alone. In short, it runs like this: (§1)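 Log-phase bacteria were diluted to a final 5×10^5 cfu/mL in cation-adjusted Mueller-Hinton broth and incubated 16-20 h at 35° C in ambient air. MIC was taken as the lowest concentration preventing growth, judged visually.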
(Broth dilution looks for growth in wells or tubes with falling amounts of substance.)

Experiment [2] concerns E. coli 190317. The experiment is described as follows: MIC of compound alone, broth microdilution. The settings on record: strain 190317; compound alone. The format is cell-based. A digest of the protocol:
as §1

The test system of experiment [3] is K. pneumoniae 6299. The experiment is described as follows: MIC of compound alone, broth microdilution. The format is cell-based. The settings on record: strain 6299; compound alone. In short, it runs like this:
as §1

For experiment [4], the system named is K. pneumoniae BAA-1898. As to the kind of experiment: MIC of compound alone, broth microdilution. Type of experiment: cell-based. The settings on record: strain BAA-1898; compound alone. In short, it runs like this: as §1
For experiment [5], the system named is P. aeruginosa CIP107051. The experiment is described as follows: MIC of compound alone, broth microdilution. The format is cell-based. The settings on record: strain CIP107051; compound alone. A digest of the protocol: as §1
Experiment [6] has as its system E. cloacae P99. As to the kind of experiment: MIC of ceftazidime (CAZ) at fixed concentration of compound (synergy), broth microdilution. The settings on record: strain P99; MIC of CAZ, compound fixed at 4 μg/mL. Type of experiment: cell-based. In short, it runs like this:
as §1

For experiment [7], the system named is E. coli 190317. The description is as above. The settings on record: strain 190317; MIC of CAZ, compound fixed at 4 μg/mL. The format is cell-based. A digest of the protocol: as §1
Experiment [8] has as its system K. pneumoniae 6299. Described as above. The format is cell-based. The settings on record: strain 6299; MIC of CAZ, compound fixed at 4 μg/mL. A digest of the protocol:
as §1

Experiment [9] concerns K. pneumoniae BAA-1898. The description is as above. Type of experiment: cell-based. The settings on record: strain BAA-1898; MIC of CAZ, compound fixed at 4 μg/mL. In short, it runs like this:
as §1

The subject of experiment [10] is P. aeruginosa CIP107051. Described as above. The settings on record: strain CIP107051; MIC of CAZ, compound fixed at 4 μg/mL. Type of experiment: cell-based. A digest of the protocol: as §1
The target of the next experiment is AmpC (P99) (Enterobacter cloacae, UniProt P05364). The settings on record: read-out: IC50 β-lactamase AmpC (P99); class (C); nitrocefin 200 μM, 30-min pre-incubation, enzyme 0.2 nM.
A further experiment concerns the target CMY-37 (Citrobacter freundii, UniProt P05193). The settings on record: read-out: IC50 β-lactamase CMY-37; class (C); nitrocefin 200 μM, 30-min pre-incubation, enzyme 0.2 nM.
The next experiment deals with AmpC (PAE) (Pseudomonas aeruginosa, UniProt P24735). The settings on record: read-out: IC50 β-lactamase AmpC (PAE); class (C); nitrocefin 200 μM, 30-min pre-incubation, enzyme 0.4 nM.
The target of a further experiment is OXA-15 (Pseudomonas aeruginosa, UniProt Q51574). The settings on record: read-out: IC50 β-lactamase OXA-15; class (D); nitrocefin 200 μM, 30-min pre-incubation, enzyme 0.4 nM.
A further experiment deals with TEM-1 (Escherichia coli, UniProt P62593). The settings on record: read-out: IC50 β-lactamase TEM-1; class (A); nitrocefin 200 μM, 30-min pre-incubation, enzyme 0.1 nM.
In another experiment the target is SHV-1 (Klebsiella pneumoniae, UniProt P0AD64). The settings on record: read-out: IC50 β-lactamase SHV-1; class (A); nitrocefin 200 μM, 30-min pre-incubation, enzyme 0.075 nM.
Another experiment has as its target CTX-M-15 (Escherichia coli, UniProt Q9EXV5). The settings on record: read-out: IC50 β-lactamase CTX-M-15; class (A); nitrocefin 200 μM, 30-min pre-incubation, enzyme 0.4 nM.
A further experiment addresses KPC-2 (Klebsiella pneumoniae, UniProt Q9F663). The settings on record: read-out: IC50 β-lactamase KPC-2; class (A); nitrocefin 200 μM, 30-min pre-incubation, enzyme 1 nM.
A further experiment concerns the target OXA-1 (Escherichia coli, UniProt P13661). The settings on record: read-out: IC50 β-lactamase OXA-1; class (D); nitrocefin 200 μM, 30-min pre-incubation, enzyme 0.2 nM.
The next experiment addresses OXA-11 (Pseudomonas aeruginosa, UniProt Q06778). The settings on record: read-out: IC50 β-lactamase OXA-11; class (D); nitrocefin 200 μM, 30-min pre-incubation, enzyme 1.2 nM.
The target of a further experiment is OXA-48 (Klebsiella pneumoniae, UniProt Q6XEC0). The settings on record: read-out: IC50 β-lactamase OXA-48; class (D); nitrocefin 200 μM, 30-min pre-incubation, enzyme 0.3 nM.

As to `O=C(O)C(F)(F)F.O=C1N2CC(n3ccc(CNc4nccs4)n3)=CC(C2)N1OS(=O)(=O)[O-].[Na+]` (stereo not drawn) [Example 35, sodium and 2,2,2-trifluoroacetate [7-oxo-3-[3-(methylene-2-ammoniumthiazole)pyrazol-1-yl]-1,6-diazabicyclo[3.2.1]oct-3-en-6-yl]sulfate], the “MIC compounds of the invention alone” value in the experiment on E. cloacae P99 [1] was greater than 32 µg/mL; in the experiment on E. coli 190317 [2], 16 µg/mL; in the experiment on K. pneumoniae 6299 [3], greater than 32 µg/mL; with K. pneumoniae BAA-1898 [4], greater than 32 µg/mL; in the experiment on P. aeruginosa CIP107051 [5], greater than 32 µg/mL. The “MIC combination of CAZ and compounds of the invention at 4 μg/mL” value (“MIC combination” below) with E. cloacae P99 [6] was found to be 32 µg/mL; in the experiment on E. coli 190317 [7] it was 0.5 µg/mL; in the experiment with K. pneumoniae 6299 [8] it was 32 µg/mL; with K. pneumoniae BAA-1898 [9], 32 µg/mL; in the experiment on P. aeruginosa CIP107051 [10] it was 16 µg/mL. The IC50 worked out at 12 nM on AmpC (P99); 8.1 nM at CMY-37; 52 nM at AmpC (PAE); 79 nM on OXA-15; 0.73 nM on TEM-1; 3.2 nM on SHV-1. The IC50 is 0.5 nM at CTX-M-15; 13 nM at KPC-2; 130 nM at OXA-1; 54 nM on OXA-11; 6 nM on OXA-48.

For the compound `C/C(=N/O)c1cnn(C2=CC3CN(C2)C(=O)N3OS(=O)(=O)[O-])c1.[Na+]` (stereo not drawn) [Example 39, sodium [3-[4-[(Z,E)-N-hydroxy-C-methyl-carbonimidoyl]pyrazol-1-yl]-7-oxo-1,6-diazabicyclo[3.2.1]oct-3-en-6-yl]sulfate], the “MIC compounds of the invention alone” value in the experiment with E. cloacae P99 [1], with E. coli 190317 [2], with K. pneumoniae 6299 [3], in the experiment with K. pneumoniae BAA-1898 [4] and with P. aeruginosa CIP107051 [5] was greater than 32 µg/mL in each case. For the same compound, the “MIC combination” value with E. cloacae P99 [6] was determined as 16 µg/mL; with E. coli 190317 [7] it was 1 µg/mL; in the experiment with K. pneumoniae 6299 [8], 16 µg/mL; in the experiment on K. pneumoniae BAA-1898 [9], 128 µg/mL; in the experiment with P. aeruginosa CIP107051 [10] it was 8 µg/mL. The 50% inhibitory concentration (IC50) on AmpC (P99) was found to be 9.5 nM; at CMY-37, 8.1 nM; at AmpC (PAE), 82 nM; on OXA-15 it was 8.5 nM; on TEM-1, 0.21 nM; at SHV-1, 1.3 nM. The concentration for half-maximal inhibition (IC50) at CTX-M-15 stood at 0.56 nM; on KPC-2 it was 4.1 nM; on OXA-1, 150 nM; at OXA-11 it was 73 nM; on OXA-48, 1.8 nM.

`NCCNC(=O)Cc1ccn(C2=CC3CN(C2)C(=O)N3OS(=O)(=O)[O-])n1.O=C(O)C(F)(F)F.[Na+]` (stereo not drawn) [Example 48, sodium and 2,2,2-trifluoroacetate [3-[3-[2-(2-ammoniumethylamino)-2-oxo-ethyl]pyrazol-1-yl]-7-oxo-1,6-diazabicyclo[3.2.1]oct-3-en-6-yl]sulfate]: the “MIC compounds of the invention alone” value with E. cloacae P99 [1] is 32 µg/mL; in the experiment on E. coli 190317 [2], 4 µg/mL; with K. pneumoniae 6299 [3] it was greater than 32 µg/mL; with K. pneumoniae BAA-1898 [4] it was greater than 32 µg/mL; in the experiment on P. aeruginosa CIP107051 [5], greater than 32 µg/mL. Moreover, the “MIC combination” value in the experiment with E. cloacae P99 [6] was 0.5 µg/mL; in the experiment on E. coli 190317 [7], less than 0.25 µg/mL; in the experiment with K. pneumoniae 6299 [8], 0.25 µg/mL; in the experiment on K. pneumoniae BAA-1898 [9], 4 µg/mL; with P. aeruginosa CIP107051 [10], 4 µg/mL. Further, the IC50 turned out to be 110 nM on AmpC (P99); 80 nM at CMY-37; 310 nM at AmpC (PAE); 510 nM on OXA-15; 1.4 nM at TEM-1; 5.3 nM on SHV-1. Besides, the IC50 amounted to 2.4 nM on CTX-M-15; 130 nM on KPC-2; 940 nM on OXA-1; 200 nM on OXA-11; 36 nM at OXA-48.

As to `NCc1ccn(C2=CC3CN(C2)C(=O)N3OS(=O)(=O)[O-])n1.O=C(O)C(F)(F)F.[Na+]` (stereo not drawn) [Example 49, sodium and 2,2,2-trifluoroacetate [3-[3-(ammoniummethyl)pyrazol-1-yl]-7-oxo-1,6-diazabicyclo[3.2.1]oct-3-en-6-yl]sulfate], the “MIC compounds of the invention alone” value in the experiment with E. cloacae P99 [1] was 16 µg/mL; with E. coli 190317 [2], 2 µg/mL; with K. pneumoniae 6299 [3] it was greater than 32 µg/mL; in the experiment on K. pneumoniae BAA-1898 [4], greater than 32 µg/mL; with P. aeruginosa CIP107051 [5], greater than 32 µg/mL. The “MIC combination” value in the experiment on E. cloacae P99 [6] was no more than 0.25 µg/mL; in the experiment with E. coli 190317 [7], less than 0.25 µg/mL; with K. pneumoniae 6299 [8], no more than 0.25 µg/mL; with K. pneumoniae BAA-1898 [9], no more than 0.25 µg/mL; in the experiment on P. aeruginosa CIP107051 [10], 4 µg/mL. The half-maximal inhibitory concentration (IC50) worked out at 160 nM at AmpC (P99); 150 nM at CMY-37; 1300 nM at AmpC (PAE); 510 nM at OXA-15; 1.2 nM at TEM-1; 8.5 nM at SHV-1. Besides, the IC50 was 2.6 nM at CTX-M-15; 180 nM at KPC-2; 670 nM on OXA-1; 380 nM at OXA-11; 46 nM on OXA-48.

As for `O=C1N2CC(n3cc(-c4nccs4)nn3)=CC(C2)N1OS(=O)(=O)[O-].[Na+]` (stereo not drawn) [Example 55, sodium [7-oxo-3-(4-thiazol-2-yltriazol-1-yl)-1,6-diazabicyclo[3.2.1]oct-3-en-6-yl]sulfate], the “MIC compounds of the invention alone” value in the experiment with E. cloacae P99 [1], with E. coli 190317 [2], with K. pneumoniae 6299 [3], with K. pneumoniae BAA-1898 [4] and in the experiment on P. aeruginosa CIP107051 [5] was greater than 32 µg/mL each time. Besides, the “MIC combination” value stood at 8 µg/mL in the experiment on E. cloacae P99 [6]; 0.25 µg/mL in the experiment on E. coli 190317 [7]; 4 µg/mL in the experiment with K. pneumoniae 6299 [8]; 1 µg/mL in the experiment with K. pneumoniae BAA-1898 [9]; 8 µg/mL in the experiment with P. aeruginosa CIP107051 [10]. Moreover, the half-maximal inhibitory concentration (IC50) is 6.3 nM at AmpC (P99); 35 nM on CMY-37; 230 nM at AmpC (PAE); 3.4 nM at OXA-15; 0.14 nM at TEM-1; 0.61 nM on SHV-1. Further, the IC50 at CTX-M-15 turned out to be 0.41 nM; on KPC-2, 0.82 nM; at OXA-1, 26 nM; on OXA-11 it was 25 nM; on OXA-48, 0.27 nM.

As a reminder, the IC50 is the concentration at which inhibition is half-maximal.
